US10401361B2, “Intracellular organelle peptide targeted enzyme substrates” (Marker Gene Technologies, Inc., priority 2009, dated 2019)

System: mannosidase
Assay: Staining with targeted mannosidase substrates after incubation with mannosidase inhibitor
Assay type: cell-based, human
Conditions: 100 uM inhibitor, 1 day (Golgi) or 5 days (ER); substrate 20 uM, 4 hours; AG06173, FIG. 2
Procedure: Normal, healthy human lung fibroblasts (Cell line AG06173, Coriell Institute for Medical Research, Camden, N.J.) were prepared according to example 17 and plated in an optical bottom 96 well plate at 1×10^4 cells/mL.
Cells were then incubated at 37° C. and 5% CO2 in complete EMEM and incubated for 1 (Golgi) or 5 days (ER) at 37° C., 5% CO2 with or without the mannosidase inhibitor swainsonine at 100 uM. The appropriate targeted substrate for staining either the ER or Golgi was then applied at a final concentration of 20 uM and incubated for 4 hours at 37° C., 5% CO2.
Following incubation the cells were washed in PBS and bathed in Opti-Klear™ Imaging Buffer (Marker Gene Technologies, Inc Eugene Oreg.) with or without nuclear stain Hoechst 33342. Cells were then imaged on an EVOS Auto-FL fluorescence microscope (Life Technologies) fitted with a TexasRed™ light cube.

## O[C@H]1[C@H]2[C@H](O)CCCN2C[C@H]1O [swainsonine]
  effect on mannosidase activity seen by targeted substrate staining: reduction in enzyme activity
